Experimental data: patent publication US8637556B2, “Linked Myc-max small molecule inhibitors” (University of Pittsburgh—Of the Commonwealth System of …, priority 2009, dated 2014)

Legend:
[1] = molecular target: T1, c-Myc-Max heterodimer binding to E-Box DNA (Homo sapiens, UniProt P01106); assay: Electrophoretic mobility shift assay (EMSA) of c-Myc-Max DNA binding; assay type: biochemical; settings: c-Myc-Max dimer 1 μM, 10 nM E-Box DNA
T1 construct: 6xHis with TEV site (N, cleaved yes); made in house; host or cells: c-Myc: E. coli BL21DE3(pLysS); Max: E. coli M15(pRep4)
Protocol: FIG. 17. Inhibition of c-Myc-Max DNA binding measured by electrophoretic mobility shift assay (EMSA). a. Inhibition by bivalent compounds 11, 12, 13. b. Inhibition by bivalent compounds 16, 17, 18. c. Inhibition by monovalent compounds 10074-G5 (1) and 10058-F4 (2). Inhibitor concentrations are micromolar. The c-Myc-Max dimer concentration was 1 μM in a and b, 50 nM in c.
Reactions containing c-Myc353-437 and varying concentrations of each tested inhibitor in a buffer containing 1×PBS, 1 mM EDTA; 0.1% NP40; 5% Glycerol; 1 mM DTT; 0.4 mg/mL BSA were incubated for 30 minutes, followed by addition of pre-mixed p21 Max and a synthetic double-stranded oligonucleotide containing a consensus c-Myc-binding “E-Box” element (CACGTG). The final protein concentration was 1 μM for both c-Myc353-437 and p21 Max, 10 nM E-Box DNA. The binding reaction was then allowed to proceed for an additional 15 minutes before loading on an 8% running gel (80:1 poly acrylamide:bis-acrylamide). Control experiments with the monovalent parent inhibitors 1 and 2 were similarly performed using a lower (50 nM) concentration of each protein component. Gels were run at 20° C. in 0.5×TBE and scanned on a BioRad FX molecular imager. Data were analyzed with BioRad Quantity One software.
We evaluated the efficacy of the linked compounds 11, 12, 13, 16, 17, 18 in inhibiting the c-Myc-Max interaction by measuring the binding of a target DNA sequence (E-Box) by the protein heterodimers in an electrophoretic mobility shift assay (EMSA). […] Of these, the best was compound 16 (LINK N1), with an IC50 in the 0.5-1.0 μM in both of the above cell lines. In contrast, higher concentrations of the compounds were required to inhibit the growth of the non-transformed rat fibroblast line TGR1 or of TGR1-derived c-Myc null rat fibroblasts reconstituted with either of the c-Myc target genes HMGA1b or MT-MC1, which restore a normal growth rate. […] The lower, albeit promising, potency of the bivalent inhibitors in cell based assays compared to ones involving purified components, and the partial lack of correlation between the first and the latter, may reflect a generally poor cell permeability of these compounds, which are relatively bulky and display higher than optimal polar surface areas. The effects of the linker chain connectivity on the compounds conformation and shape may also affect their cell permeability in a different manner from what observed for their c-Myc binding affinity, resulting in the aforementioned incomplete correlation between their performance in cell based and purified components assays (FIG. 19). […]

[2] = molecular target: T2, c-Myc 363-381 (Homo sapiens, UniProt P01106); assay: Fluorescence polarization titration, truncated c-Myc peptide 363-381; settings: Table 2; segment with binding site of 1; read-out: Binding affinity to c-Myc 363-381
T2 construct: The synthetic peptide c-Myc363-381 is described in Follis; host or cells: synthetic peptide
Excerpt: A c-Myc353-437 full-length bHLH-ZIP domain and its truncated version c-Myc390-439 were produced from the c-Myc/pET SKB3 construct, kindly supplied by Dr. S. K. Nair (University of Illinois, Urbana-Champaign), by insertion into the pET151D vector, encoding an N-terminal hexahistidine (6× His), separated by a TEV protease digestion site, with the TOPO® ligation system, and over-expressed in E. coli BL21DE3(pLysS). The 6× His tagged human Max isoform p21, with low homodimerization affinity^70, cloned into the pQE10 vector (Qiagen, Inc.), was over-expressed in E. coli M15(pRep4). Bacterial cultures were grown at 37° C. in LB medium to OD600≈0.8, then induced with 0.5 mM IPTG for 5 hours. Proteins were purified by Ni-agarose chromatography with a pH gradient elution. The 6× His tag of c-MYC353-437 and c-Myc390-439 was cleaved using TEV protease (the TEV protease was expressed in a pET24 vector [courtesy of S. K. Nair] and purified by Ni-agarose chromatography under native conditions). All the proteins were further purified by HPLC and lyophilized. Protein concentrations were determined by measurement of OD280. […]
Samples were analyzed in a Photon Technology International QuantaMaster fluorimeter (Birmingham, N.J.) equipped with polymer sheet polarizers. […] Excitation and emission wavelengths were independently determined for each inhibitor. […]

[3] = molecular target: T3, c-Myc 400-439 (Homo sapiens, UniProt P01106); assay: Fluorescence polarization titration, truncated c-Myc segment; settings: Table 2; segment with binding site of 2; read-out: Binding affinity to c-Myc 400-439
T3 construct: its truncated version c-Myc390-439 were produced from the c-Myc/pET SKB3 construct; 6xHis with TEV site (N, cleaved yes); made in house; host or cells: E. coli BL21DE3(pLysS)
T3 sequence (P01106 405-454): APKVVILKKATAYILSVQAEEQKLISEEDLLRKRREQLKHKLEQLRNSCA

T1 sequence (P01106 368-452, one chain of several): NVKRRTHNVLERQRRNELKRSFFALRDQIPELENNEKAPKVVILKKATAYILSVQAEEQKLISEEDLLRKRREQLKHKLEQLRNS

SMILES | Disruption of c-Myc-Max DNA (E-Box) binding [1] | Kd [2] [nM] | Kd [3] [nM]
O=C1NC(=S)S/C1=C\c1ccc(C(=O)NCCCCCNC(=O)c2cccc(Nc3ccc([N+](=O)[O-])c4nonc34)c2)cc1 [compound 12, N-[5-({3-[(7-nitro-2,1,3-benzoxadiazol-4-yl)amino]phenyl}formamido)pentyl]-4-{[(5Z)-4-oxo-2-sulfanylidene-1,3-thiazolidin-5-ylidene]methyl}benzamide] | Strong disruption of DNA binding |  | 
O=C1NC(=S)SC1=Cc1ccc(C(=O)NCCCCCNC(=O)c2ccc(Nc3ccc([N+](=O)[O-])c4nonc34)cc2)cc1 [compound 13] | Strong disruption of DNA binding | 0.8 ± 0.6 | 53 ± 16
CCc1ccc(/C=C2\SC(=O)N(CCCCCCNC(=O)c3ccccc3Nc3ccc([N+](=O)[O-])c4nonc34)C2=O)cc1 [compound 16, N-{6-[(5Z)-5-[(4-ethylphenyl)methylidene]-2,4-dioxo-1,3-thiazolidin-3-yl]hexyl}-2-[(7-nitro-2,1,3-benzoxadiazol-4-yl)amino]benzamide amine] | Strong disruption of DNA binding |  | 
CCc1ccc(C=C2SC(=O)N(CCCCCCNC(=O)c3cccc(Nc4ccc([N+](=O)[O-])c5nonc45)c3)C2=O)cc1 [compound 17] | Strong disruption of DNA binding |  | 
